According to the supplement of paper PMC10307832:

Columns and labels:
Assay in all cases: relative viability (nuclei count vs DMSO), 5 days (fraction); higher = more cells survive
[1] = test system: LCLC-97TM1
Method in brief: (§1)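 Cells from lung cancer lines were seeded into 1536-well plates and, one day later, dosed by pin tool. Treatments were either a single drug or a fixed dose of an anchor drug with five library-drug doses (not always all listed) in √10 steps. After 5 days, nuclei were stained in a one-step fixation (final 0.05% Triton X-100, 1% formaldehyde, 1 ug/ml Hoechst) and counted on 4× images, and relative viability is the treated-to-vehicle nuclei ratio, as the median of duplicate plates.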

[2] = test system: NCI-H661
Method in brief: as §1

[3] = test system: NCI-H23
Method in brief: as §1

[4] = test system: NCI-H2347
Method in brief: as §1

[5] = test system: COR-L 105
Method in brief: as §1

[6] = test system: PC-14
Method in brief: as §1

[7] = test system: HCC-827
Method in brief: as §1

[8] = test system: NCI-H520
Method in brief: as §1

[9] = test system: RERF-LC-KJ
Method in brief: as §1

[10] = test system: H3255
Method in brief: as §1

[11] = test system: NCI-H1666
Method in brief: as §1

[12] = test system: NCI-H2126
Method in brief: as §1

[13] = test system: NCI-H650
Method in brief: as §1

[14] = test system: NCI-H2405
Method in brief: as §1

[15] = test system: ChaGo-K-1
Method in brief: as §1

[16] = test system: 201T
Method in brief: as §1

[17] = test system: NCI-H322M
Method in brief: as §1

[18] = test system: NCI-H647
Method in brief: as §1

[19] = test system: NCI-H2087
Method in brief: as §1

[20] = test system: NCI-H1915
Method in brief: as §1

[21] = test system: LC-2-ad
Method in brief: as §1

[22] = test system: EPLC-272H
Method in brief: as §1

NC(=O)Nc1cc(-c2cccc(F)c2)sc1C(=O)N[C@H]1CCCNC1 [AZD7762] + CCNC(=O)c1noc(-c2cc(C(C)C)c(O)cc2O)c1-c1ccc(CN2CCOCC2)cc1 [Luminespib] (partner 0.01 µM) showed a relative viability ([1]; first compound 0.01 µM) of 0.876, a relative viability ([1]; first compound 0.03162 µM) of 0.706 and a relative viability ([1]; first compound 0.1 µM) of 0.738. The relative viability ([1]; first compound 0.3162 µM) was 0.771, the relative viability ([1]; first compound 1 µM) was 0.786 and the relative viability ([2]; first compound 0.01 µM) was 1.01. The relative viability ([2]; first compound 0.03162 µM) was 1, the relative viability ([2]; first compound 0.1 µM) was 1.02 and the relative viability ([2]; first compound 0.3162 µM) was 0.971. For the same compound, the relative viability ([2]; first compound 1 µM) was 0.417, the relative viability ([3]; first compound 0.01 µM) was 0.226 and the relative viability ([3]; first compound 0.03162 µM) was 0.189. The relative viability ([3]; first compound 0.1 µM) was 0.194, the relative viability ([3]; first compound 0.3162 µM) was 0.206 and the relative viability ([3]; first compound 1 µM) was 0.194. For the same compound, the relative viability ([4]; first compound 0.01 µM) was 0.417, the relative viability ([4]; first compound 0.03162 µM) was 0.573 and the relative viability ([4]; first compound 0.1 µM) was 0.715. It also gave a relative viability ([4]; first compound 0.3162 µM) of 0.396, a relative viability ([4]; first compound 1 µM) of 0.63 and a relative viability ([5]; first compound 0.01 µM) of 0.743. The relative viability ([5]; first compound 0.03162 µM) was 0.585, the relative viability ([5]; first compound 0.1 µM) was 0.696 and the relative viability ([5]; first compound 0.3162 µM) was 0.648. It also gave a relative viability ([5]; first compound 1 µM) of 0.401, a relative viability ([6]; first compound 0.01 µM) of 0.162 and a relative viability ([6]; first compound 0.03162 µM) of 0.199. It also gave a relative viability ([6]; first compound 0.1 µM) of 0.16, a relative viability ([6]; first compound 0.3162 µM) of 0.118 and a relative viability ([6]; first compound 1 µM) of 0.136. The relative viability ([7]; first compound 0.01 µM) was 0.598, the relative viability ([7]; first compound 0.03162 µM) was 0.677 and the relative viability ([7]; first compound 0.1 µM) was 0.604. The relative viability ([7]; first compound 0.3162 µM) was 0.459, the relative viability ([7]; first compound 1 µM) was 0.213 and the relative viability ([8]; first compound 0.01 µM) was 0.208. It also gave a relative viability ([8]; first compound 0.03162 µM) of 0.191, a relative viability ([8]; first compound 0.1 µM) of 0.238 and a relative viability ([8]; first compound 0.3162 µM) of 0.254. For the same compound, the relative viability ([8]; first compound 1 µM) was 0.234, the relative viability ([9]; first compound 0.01 µM) was 1.41 and the relative viability ([9]; first compound 0.03162 µM) was 1.38. For the same compound, the relative viability ([9]; first compound 0.1 µM) was 1.21, the relative viability ([9]; first compound 0.3162 µM) was 1.2 and the relative viability ([9]; first compound 1 µM) was 1.02. For the same compound, the relative viability ([10]; first compound 0.01 µM) was 1.02, the relative viability ([10]; first compound 0.03162 µM) was 0.982 and the relative viability ([10]; first compound 0.1 µM) was 0.975. For the same compound, the relative viability ([10]; first compound 0.3162 µM) was 0.913, the relative viability ([10]; first compound 1 µM) was 0.962 and the relative viability ([11]; first compound 0.01 µM) was 1.11. It also gave a relative viability ([11]; first compound 0.03162 µM) of 1.07, a relative viability ([11]; first compound 0.1 µM) of 1.18 and a relative viability ([11]; first compound 0.3162 µM) of 1.03. It also gave a relative viability ([11]; first compound 1 µM) of 0.97, a relative viability ([12]; first compound 0.01 µM) of 0.922 and a relative viability ([12]; first compound 0.03162 µM) of 0.914. For the same compound, the relative viability ([12]; first compound 0.1 µM) was 0.833, the relative viability ([12]; first compound 0.3162 µM) was 0.802 and the relative viability ([12]; first compound 1 µM) was 0.456. It also gave a relative viability ([13]; first compound 0.01 µM) of 0.801, a relative viability ([13]; first compound 0.03162 µM) of 0.728 and a relative viability ([13]; first compound 0.1 µM) of 0.763. It also gave a relative viability ([13]; first compound 0.3162 µM) of 0.641, a relative viability ([13]; first compound 1 µM) of 0.458 and a relative viability ([14]; first compound 0.01 µM) of 0.823. The relative viability ([14]; first compound 0.03162 µM) was 0.707, the relative viability ([14]; first compound 0.1 µM) was 0.784 and the relative viability ([14]; first compound 0.3162 µM) was 0.672. For the same compound, the relative viability ([14]; first compound 1 µM) was 0.33, the relative viability ([15]; first compound 0.01 µM) was 0.601 and the relative viability ([15]; first compound 0.03162 µM) was 0.578. For the same compound, the relative viability ([15]; first compound 0.1 µM) was 0.692, the relative viability ([15]; first compound 0.3162 µM) was 0.513 and the relative viability ([15]; first compound 1 µM) was 0.354. It also gave a relative viability ([16]; first compound 0.01 µM) of 1.11, a relative viability ([16]; first compound 0.03162 µM) of 1.07 and a relative viability ([16]; first compound 0.1 µM) of 1.06. The relative viability ([16]; first compound 0.3162 µM) was 1.14, the relative viability ([16]; first compound 1 µM) was 0.913 and the relative viability ([17]; first compound 0.01 µM) was 0.851. It also gave a relative viability ([17]; first compound 0.03162 µM) of 0.827, a relative viability ([17]; first compound 0.1 µM) of 0.357 and a relative viability ([17]; first compound 0.3162 µM) of 0.248. It also gave a relative viability ([17]; first compound 1 µM) of 0.245, a relative viability ([18]; first compound 0.01 µM) of 0.118 and a relative viability ([18]; first compound 0.03162 µM) of 0.163. The relative viability ([18]; first compound 0.1 µM) was 0.0996, the relative viability ([18]; first compound 0.3162 µM) was 0.119 and the relative viability ([18]; first compound 1 µM) was 0.101. The relative viability ([19]; first compound 0.01 µM) was 0.203, the relative viability ([19]; first compound 0.03162 µM) was 0.145 and the relative viability ([19]; first compound 0.1 µM) was 0.237. The relative viability ([19]; first compound 0.3162 µM) was 0.173, the relative viability ([19]; first compound 1 µM) was 0.162 and the relative viability ([20]; first compound 0.01 µM) was 0.828. It also gave a relative viability ([20]; first compound 0.03162 µM) of 0.829, a relative viability ([20]; first compound 0.1 µM) of 0.743 and a relative viability ([20]; first compound 0.3162 µM) of 0.555. For the same compound, the relative viability ([20]; first compound 1 µM) was 0.434, the relative viability ([21]; first compound 0.01 µM) was 1.27 and the relative viability ([21]; first compound 0.03162 µM) was 1.09. It also gave a relative viability ([21]; first compound 0.1 µM) of 1.05, a relative viability ([21]; first compound 0.3162 µM) of 0.991 and a relative viability ([21]; first compound 1 µM) of 0.646. It also gave a relative viability ([22]; first compound 0.01 µM) of 0.55, a relative viability ([22]; first compound 0.03162 µM) of 0.303 and a relative viability ([22]; first compound 0.1 µM) of 0.319. It also gave a relative viability ([22]; first compound 0.3162 µM) of 0.459 and a relative viability ([22]; first compound 1 µM) of 0.143.
